Assay results as given in patent US8084027B2, “Combinations comprising a CDK inhibitor and a growth factor antibody or anti-mitotic” (Nerviano Medical Sciences S.r.l., priority 2006, dated 2011).
Where two headings read alike, the source gives them in different places.

Experiments:
[1] = system: DU145 prostate carcinoma cells; conditions: Compound A 40 mg/kg oral BID; for Time to reach 1 g: DU145 s.c. in athymic mice, docetaxel 10 mg/kg i.v. days 10, 14, 18, in combination Compound A given between docetaxel treatments; for T-C: delay vs control to reach tumor size 1 g, docetaxel 10 mg/kg i.v.
Experimental: Balb, Nu\Nu male mice, from Harlan (Italy), were maintained in cages with paper filter cover, food and bedding sterilized and water acidified. 2.5×10^6 DU145 prostate carcinoma cells (from the American Type Culture Collection) were injected subcutaneously in athymic mice.
The treatment started 10 days later tumor cells injection when tumors were palpable. Docetaxel was prepared immediately before treatment, while COMPOUND A was prepared every 3 days, on the basis of known stability of the compound.
COMPOUND A was administered by oral route in a volume of 10 ml/kg at the doses of 40 mg/kg twice a day (BID) for 9 days (days 10 to 18). Docetaxel was administered by intravenous route in a volume of 10 ml/kg at the dose of 10 mg/kg on days 10, 14, 18 from the days of cell injection. When combined, COMPOUND A was administered in the interval between the docetaxel treatments at days 11, 12, 13, 15, 16, 17, 19, 20 and 21. Tumor growth and body weight were measured every 3 days. Tumor growth was assessed by caliper. The two diameters were recorded and the tumor weight was calculated according to the following formula: length (mm)×width^2/2. The effect of the antitumor treatment was evaluated as the delay in the onset of an exponential growth of the tumor (see for references, Anticancer drugs 7:437-60, 1996). This delay (T-C value) was defined as the difference of time (in days) required for the treatment group (T) and the control group (C) tumors to reach a predetermined size (1 g). Toxicity was evaluated on the basis of body weight reduction.

[2] = system: DU145 prostate carcinoma cells; assay: In vivo antitumor efficacy using the monoclonal antibody (DU145 xenograft, tumor growth delay); conditions: COMPOUND A 40 mg/kg oral BID; for Time to reach 1 g: DU145 s.c. in athymic mice, bevacizumab 20 mg/kg i.p. days 6, 10, 14, 18, in combination COMPOUND A given between bevacizumab treatments; for T-C: delay vs control to reach tumor size 1 g
Experimental: Balb, Nu\Nu male mice, from Harlan (Italy), were maintained in cages with paper filter cover, food and bedding sterilized and water acidified. 2.5×10^6 DU145 prostate carcinoma cells (from the American Type Culture Collection) were injected subcutaneously in athymic mice. […] The treatment started 6 days later tumor cell injection when tumors were palpable. Bevacizumab was prepared immediately before treatment, while COMPOUND A was prepared every 3 days, on the basis of known stability of the compound.
COMPOUND A was administrated by oral route in a volume of 10 ml/kg at the dose of 40 mg/kg twice a day (BID) for 12 days (days 6 to 17). Bevacizumab was administered intraperitoneally in a volume of 10 ml/kg at the dose of 20 mg/kg on days 6, 10, 14, 18 from the days of tumor cells injection. When combined, COMPOUND A was administered in the interval between the bevacizumab treatments at days 7, 8, 9, 11, 12, 13, 15, 16, 17, 19, 20 and 21. Tumor growth and body weight were measured every 3 days. Tumor growth was assessed by caliper. The two diameters were recorded and the tumor weight was calculated according the following formula: length (mm)×width^2/2. The effect of the antitumor treatment was evaluated as the delay in the onset of an exponential growth of the tumor (see for references, Anticancer drugs 7:437-60, 1996). This delay (T-C value) was defined as the difference of time (in days) required for the treatment group (T) and the control group (C) tumors to reach a predetermined size (1 g). Toxicity was evaluated on the basis of body weigh reduction.

Compound	Time to reach 1 g [1] [days]	T-C [1] [days]	Time to reach 1 g [2] [days]	T-C ([2]; bevacizumab 20 mg/kg i.p.) [days]	Toxicity ([2]; evaluated on the basis of body weight reduction, bevacizumab 20 mg/kg i.p.)
CC(=O)O[C@@]12CO[C@@H]1C[C@H](O)[C@@]1(C)C(=O)[C@H](O)C3=C(C)[C@@H](OC(=O)[C@H](O)[C@@H](NC(=O)OC(C)(C)C)c4ccccc4)C[C@@](O)([C@@H](OC(=O)c4ccccc4)[C@H]21)C3(C)C [Docetaxel]	22.25 ± 2.98	5.05	–	–	–
CNC(=O)c1nn(C)c2c1C(C)(C)Cc1cnc(Nc3ccc(N4CCN(C)CC4)cc3)nc1-2 [COMPOUND A, 8-[4-(4-methyl-piperazin-1-yl)-phenylamino]-1,4,4-trimethyl-4,5-dihydro-1H-pyrazolo[4,3-h]quinazoline-3-carboxylic acid methylamide]	27.4 ± 2.7	10.21	32.38 ± 2.7	16.88	–
Bevacizumab: antibody to vascular endothelial growth factor	–	–	27.93 ± 3.44	12.43	0/8
